Read-outs that look alike come from different tables or passages of the source. Numbered stars: 1 amine (or outer) side, 2 acyl side, 3 side chain; on linkers, the order of the positions; unused ones are H or OH. Bridge positions count the residues as written; N and C are the ends. Square brackets hold non-standard residues; d marks the D form. Peptide text beside a SMILES is read from it. CO = O=C([*:1])[*:2]; Nlys = NCCCCNCC(=O)O
Columns and labels:
[1] = target: T1, α4β1-VCAM-1 Fc chimera (Homo sapiens, UniProt P05556+P13612); test: ELISA solid-phase ligand-receptor binding, integrin α4β1 to VCAM-1 Fc chimera
T1 construct: purchased R&D Systems Co (Minneapolis, MN)
Description: Recombinant human VCAM-1 and MadCAM-1 (3 mg/mL in phosphate-buffered saline containing divalent cations), were immobilized on the wells of a 96-well ELISA plate (Dynatech Immulon) by overnight incubation at 4 °C. After washing with HBSST (Hanks’ Balanced Salt solution containing calcium and magnesium and 0.05% Tween-20) the plates were blocked with 5% BSA in HBSST by incubation at 37 °C for 1 h. The plates were washed with HBSST, and recombinant human integrin α4β1 or α4β7 (3 mg/mL) was added in the presence or absence of competitor cyclic peptides, disintegrins, or monoclonal anti-integrin antibodies dissolved in HBSS containing 1% BSA. The plates were thereafter incubated at 30 °C for 3 h, as time-binding had reached a plateau, and then washed 3 times with HBSST. Bound integrins were quantitated using primary anti-integrin polyclonal and monoclonal antibodies at a concentration of 0.5 mg/mL in HBSST containing 1% BSA, and incubated at 37 °C for 1 h. The plates were washed 3 times with HBSST and secondary antibodies- alkaline phosphatase (AP) conjugated (Sigma Co.) were added at dilution 1:1000 and incubated at 37 °C for 1 h. Thereafter, the plates were washed 3 times with HBSST and twice with HBSS and the alkaline phosphatase substrate 4-nitrophenyl phosphate was added to the wells for 30 min. The plates were read using Tecan Spectrophotometer at 405 nm. The level of nonspecific binding was measured in each experiment by determining the level of binding to wells coated with BSA alone.

[2] = target: T2, α1β1-collagen IV (Homo sapiens, UniProt P05556+P56199); test: Adhesion of α1-K562 overexpressor cells to immobilized collagen IV; type: cell-based
T2 construct: expressed in transfected cells; host or cells: K562 transfected with α1 integrin (gift of Dr. M. Hemler)
Description: (§1) Cell adhesion assay was carried out as previously described[47] with minor modifications. The day before the experiment, each well was coated with VCAM-1 (3 mg/mL) immobilized on the 96-well plate in PBS by overnight incubation at 4 °C. Thereafter, nonspecific binding was blocked by incubating the wells with 1% (w/v) bovine serum albumin (BSA) in Hank’s Balanced Salt Solution (HBSS) containing 5 mM MgCl2 at room temperature for 1 h before use. The cells were labeled by incubation with 12.5 μM 5-chloromethylfluorescein diacetate (CMFDA) in HBSS without 1% BSA at 37 °C for 30 min. The labeled cells were then centrifuged at 1000 rpm and washed twice with HBSS containing 1% BSA to remove excess CMFDA. Labeled cells (about 1 × 10^5 cells/well) were plated on each well in the presence or absence of visabrons and incubated at 37 °C for 60 min. Unbound cells were removed by washing the wells three times with 1% (w/v) BSA in HBSS, and bound cells were lysed by the addition of 0.5% Triton X-100 (diluted in DDW). The fluorescence in each well was quantified with a SPECTRAFluor Plus plate reader (Tecan), at λex = 485 nm and λem = 530 nm. To determine the number of adhered cells from the fluorescence values, a standard curve was generated by serial dilution of known numbers of CMFDA-labeled cells. […]
(§2) Table S6. TMLD- linear peptides inhibition of adhesion of integrin expressing cells to the respective immobilized ligands a a The cells were incubated for 30 min at 37 °C with the cells (1 x 105) in the 96 -well plate, previously covered with extracellular matrix ligand, in 100 µL of HBSS containing calcium and magnesium. After being washed with the same buffer, the adhered cells were lysed by Triton X-100, and the plate was read using Tecan spectrofluorimeter. The inhibitory dose 50% (IC 50) values represent ing mean ± standard deviatio ns (n=6) were calculated from dose response curves. bJurkat cells,VCAM -1; c α9-SW480 overexpressing cells, VCAM-1; d α1-K562 overexpressing cells, collagen IV ;e α2-K562 overexpressing cells, collagen I; f K562 wild type

[3] = target: T3, α2β1-collagen I (Homo sapiens, UniProt P05556+P17301); test: Adhesion of α2-K562 overexpressor cells to immobilized collagen I; type: cell-based
T3 construct: expressed in transfected cells; host or cells: K562 transfected with α2 integrin (gift of Dr. M. Hemler)
T3 sequence (P17301 30-1181): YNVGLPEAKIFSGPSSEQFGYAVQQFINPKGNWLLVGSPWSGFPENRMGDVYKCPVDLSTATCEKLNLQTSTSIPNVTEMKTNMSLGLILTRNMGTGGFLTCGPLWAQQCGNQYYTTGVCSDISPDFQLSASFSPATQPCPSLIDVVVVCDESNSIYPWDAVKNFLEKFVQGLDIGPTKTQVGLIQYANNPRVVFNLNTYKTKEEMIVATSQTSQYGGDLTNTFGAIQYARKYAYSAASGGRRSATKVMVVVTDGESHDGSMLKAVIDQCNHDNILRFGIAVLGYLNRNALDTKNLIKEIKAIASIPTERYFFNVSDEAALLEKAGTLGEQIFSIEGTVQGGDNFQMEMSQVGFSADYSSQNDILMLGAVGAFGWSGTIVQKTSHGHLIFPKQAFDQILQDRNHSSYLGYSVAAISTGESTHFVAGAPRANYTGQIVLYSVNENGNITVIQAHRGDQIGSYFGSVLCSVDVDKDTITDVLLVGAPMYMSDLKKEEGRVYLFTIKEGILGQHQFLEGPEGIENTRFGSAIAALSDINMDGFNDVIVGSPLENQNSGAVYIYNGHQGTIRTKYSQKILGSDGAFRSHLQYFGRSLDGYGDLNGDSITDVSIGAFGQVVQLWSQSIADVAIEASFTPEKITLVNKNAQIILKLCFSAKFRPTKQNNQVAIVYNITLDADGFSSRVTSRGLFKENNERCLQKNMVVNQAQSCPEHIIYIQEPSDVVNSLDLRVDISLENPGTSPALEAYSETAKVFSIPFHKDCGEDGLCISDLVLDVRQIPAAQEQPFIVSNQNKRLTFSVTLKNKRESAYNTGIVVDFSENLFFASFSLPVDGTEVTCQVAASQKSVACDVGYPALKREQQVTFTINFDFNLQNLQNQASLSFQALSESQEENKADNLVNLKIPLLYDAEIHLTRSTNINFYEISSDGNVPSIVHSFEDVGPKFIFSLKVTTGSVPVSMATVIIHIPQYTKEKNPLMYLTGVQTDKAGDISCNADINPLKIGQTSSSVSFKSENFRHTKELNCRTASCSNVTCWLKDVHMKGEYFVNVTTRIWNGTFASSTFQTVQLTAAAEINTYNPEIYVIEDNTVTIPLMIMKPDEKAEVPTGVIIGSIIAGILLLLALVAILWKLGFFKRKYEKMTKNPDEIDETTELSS
T3 sequence (P05556 21-798): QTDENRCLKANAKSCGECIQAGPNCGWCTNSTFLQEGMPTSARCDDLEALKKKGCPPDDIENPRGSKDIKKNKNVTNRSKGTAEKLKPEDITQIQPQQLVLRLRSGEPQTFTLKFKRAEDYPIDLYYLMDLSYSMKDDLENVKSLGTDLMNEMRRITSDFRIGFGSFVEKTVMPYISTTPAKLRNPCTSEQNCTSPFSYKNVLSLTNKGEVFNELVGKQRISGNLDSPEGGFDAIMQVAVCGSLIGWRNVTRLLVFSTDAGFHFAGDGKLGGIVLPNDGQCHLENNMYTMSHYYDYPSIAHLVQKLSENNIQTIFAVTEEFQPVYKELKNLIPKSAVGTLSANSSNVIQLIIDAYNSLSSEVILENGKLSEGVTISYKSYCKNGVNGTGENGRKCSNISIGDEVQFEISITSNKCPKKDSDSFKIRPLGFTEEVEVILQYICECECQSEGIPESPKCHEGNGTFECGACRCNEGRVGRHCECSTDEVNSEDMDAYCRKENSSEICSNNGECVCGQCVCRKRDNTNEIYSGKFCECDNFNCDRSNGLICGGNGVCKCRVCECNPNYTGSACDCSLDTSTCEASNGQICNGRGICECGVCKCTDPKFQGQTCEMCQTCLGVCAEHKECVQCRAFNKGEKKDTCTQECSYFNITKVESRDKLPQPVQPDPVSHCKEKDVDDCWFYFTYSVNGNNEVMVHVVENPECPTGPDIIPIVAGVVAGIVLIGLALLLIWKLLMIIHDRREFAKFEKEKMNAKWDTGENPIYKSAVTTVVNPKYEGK
Description: as §1, §2

[4] = target: T4, α4β1 (Jurkat lymphocytes-VCAM-1) (Homo sapiens, UniProt P05556+P13612); test: Adhesion of Jurkat lymphocytes to immobilized VCAM-1; type: cell-based
T4 construct: host or cells: Jurkat (untreated or TNFα-treated)
T4 sequence (P13612 34-1032): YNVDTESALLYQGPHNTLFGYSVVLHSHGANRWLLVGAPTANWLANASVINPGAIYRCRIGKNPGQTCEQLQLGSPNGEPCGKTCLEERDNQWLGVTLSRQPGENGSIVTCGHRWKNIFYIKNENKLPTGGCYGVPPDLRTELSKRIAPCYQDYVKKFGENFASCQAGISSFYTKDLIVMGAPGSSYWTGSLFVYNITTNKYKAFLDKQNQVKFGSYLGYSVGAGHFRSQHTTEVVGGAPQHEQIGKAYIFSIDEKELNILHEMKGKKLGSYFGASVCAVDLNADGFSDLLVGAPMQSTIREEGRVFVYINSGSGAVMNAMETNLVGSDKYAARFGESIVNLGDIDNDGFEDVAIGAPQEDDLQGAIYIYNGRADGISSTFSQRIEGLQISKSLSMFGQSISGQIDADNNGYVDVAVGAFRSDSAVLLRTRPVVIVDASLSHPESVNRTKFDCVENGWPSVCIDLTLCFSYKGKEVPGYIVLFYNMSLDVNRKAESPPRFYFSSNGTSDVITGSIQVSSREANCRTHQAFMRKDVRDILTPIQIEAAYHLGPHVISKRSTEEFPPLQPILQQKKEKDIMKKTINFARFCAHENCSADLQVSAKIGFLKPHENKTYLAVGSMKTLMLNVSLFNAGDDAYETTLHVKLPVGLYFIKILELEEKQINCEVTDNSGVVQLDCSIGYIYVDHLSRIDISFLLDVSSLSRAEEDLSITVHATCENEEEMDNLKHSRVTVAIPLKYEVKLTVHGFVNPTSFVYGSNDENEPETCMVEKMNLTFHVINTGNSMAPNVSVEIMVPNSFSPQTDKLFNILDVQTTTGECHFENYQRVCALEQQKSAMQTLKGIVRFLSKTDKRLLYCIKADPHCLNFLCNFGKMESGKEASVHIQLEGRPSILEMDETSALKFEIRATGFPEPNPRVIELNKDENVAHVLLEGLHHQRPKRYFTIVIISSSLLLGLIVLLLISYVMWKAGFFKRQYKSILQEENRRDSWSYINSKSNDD
T4 sequence (P05556 21-798): as the sequence (P05556 21-798) above
Description: as §1, §2

[5] = target: T5, α5β1-fibronectin (Homo sapiens, UniProt P05556+P08648); test: Adhesion of wild-type K562 cells to immobilized fibronectin; type: cell-based
T5 construct: host or cells: K562 wild type
T5 sequence (P08648 42-894 limits assumed): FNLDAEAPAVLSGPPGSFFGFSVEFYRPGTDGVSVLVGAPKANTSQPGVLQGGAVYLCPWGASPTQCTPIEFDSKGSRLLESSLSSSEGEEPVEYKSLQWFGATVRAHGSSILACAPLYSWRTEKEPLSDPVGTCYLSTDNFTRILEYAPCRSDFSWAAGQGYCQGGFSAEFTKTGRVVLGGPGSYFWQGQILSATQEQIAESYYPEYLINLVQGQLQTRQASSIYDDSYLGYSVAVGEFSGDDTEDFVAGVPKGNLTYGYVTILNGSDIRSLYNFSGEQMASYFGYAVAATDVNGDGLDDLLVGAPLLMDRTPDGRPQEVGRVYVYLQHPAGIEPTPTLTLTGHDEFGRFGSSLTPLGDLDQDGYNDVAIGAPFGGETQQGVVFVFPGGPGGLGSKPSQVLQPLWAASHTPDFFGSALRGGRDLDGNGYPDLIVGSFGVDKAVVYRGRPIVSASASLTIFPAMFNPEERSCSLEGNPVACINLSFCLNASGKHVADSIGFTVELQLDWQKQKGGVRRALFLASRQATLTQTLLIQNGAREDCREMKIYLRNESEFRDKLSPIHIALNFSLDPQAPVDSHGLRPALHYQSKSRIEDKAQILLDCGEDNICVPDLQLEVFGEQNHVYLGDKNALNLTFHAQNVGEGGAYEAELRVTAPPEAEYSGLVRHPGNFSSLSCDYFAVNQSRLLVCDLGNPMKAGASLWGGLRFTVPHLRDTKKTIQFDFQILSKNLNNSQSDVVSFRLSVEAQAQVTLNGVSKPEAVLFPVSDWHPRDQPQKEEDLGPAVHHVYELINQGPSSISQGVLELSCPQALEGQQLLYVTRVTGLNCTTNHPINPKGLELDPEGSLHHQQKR
T5 sequence (P08648 895-1049 limits assumed): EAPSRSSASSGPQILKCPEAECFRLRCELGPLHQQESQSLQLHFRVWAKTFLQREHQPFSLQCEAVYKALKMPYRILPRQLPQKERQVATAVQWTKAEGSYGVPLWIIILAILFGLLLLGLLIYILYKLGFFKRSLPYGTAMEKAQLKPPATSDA
T5 sequence (P05556 21-798): as the sequence (P05556 21-798) above
Description: as §1, §2

[6] = target: α9β1-VCAM-1 Fc chimera (Homo sapiens, UniProt P05556+Q13797); test: ELISA binding assay, α9β1 to VCAM-1 Fc chimera
[7] = target: T6, α9β1 (Homo sapiens, UniProt P05556+Q13797); test: Adhesion of α9-SW480 overexpressing cells to VCAM-1; type: cell-based; conditions: n=6, Table S6, read-out: IC50 α9β1 (linear peptides)
T6 construct: generated by transfection with full-length α9 expression plasmid pcDNAIneoa9; expressed in transfected cells; host or cells: SW480 transfected with pcDNAIneoa9
T6 sequence (Q13797 30-1035): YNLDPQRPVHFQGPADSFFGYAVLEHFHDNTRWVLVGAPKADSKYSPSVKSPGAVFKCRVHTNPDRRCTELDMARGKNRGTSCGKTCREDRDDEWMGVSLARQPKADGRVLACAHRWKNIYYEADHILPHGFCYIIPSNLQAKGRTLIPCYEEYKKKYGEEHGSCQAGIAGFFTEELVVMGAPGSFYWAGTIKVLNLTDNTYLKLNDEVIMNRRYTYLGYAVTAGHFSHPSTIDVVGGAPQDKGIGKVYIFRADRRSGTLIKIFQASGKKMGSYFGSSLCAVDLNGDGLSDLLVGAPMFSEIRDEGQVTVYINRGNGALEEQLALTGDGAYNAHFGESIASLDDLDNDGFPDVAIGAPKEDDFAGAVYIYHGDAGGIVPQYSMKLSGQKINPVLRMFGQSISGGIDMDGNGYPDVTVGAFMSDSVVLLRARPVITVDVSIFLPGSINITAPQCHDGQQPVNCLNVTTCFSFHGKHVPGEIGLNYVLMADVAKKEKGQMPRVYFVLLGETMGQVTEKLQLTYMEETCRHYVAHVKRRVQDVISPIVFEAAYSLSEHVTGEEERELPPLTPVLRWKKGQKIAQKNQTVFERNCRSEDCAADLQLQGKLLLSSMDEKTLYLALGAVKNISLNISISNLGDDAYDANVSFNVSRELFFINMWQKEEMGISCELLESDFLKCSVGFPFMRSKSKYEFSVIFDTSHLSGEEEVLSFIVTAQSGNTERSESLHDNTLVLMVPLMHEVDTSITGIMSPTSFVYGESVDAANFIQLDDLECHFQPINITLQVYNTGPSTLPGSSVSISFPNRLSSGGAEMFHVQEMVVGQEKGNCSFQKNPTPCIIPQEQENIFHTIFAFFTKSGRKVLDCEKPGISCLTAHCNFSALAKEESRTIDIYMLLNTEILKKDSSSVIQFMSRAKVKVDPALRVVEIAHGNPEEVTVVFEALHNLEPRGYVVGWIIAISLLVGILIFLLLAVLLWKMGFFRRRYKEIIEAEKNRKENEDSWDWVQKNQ
T6 sequence (P05556 21-798): as the sequence (P05556 21-798) above
Description: as §2, with “type […]” for “type”
(1 picture or pasted object on this page, not shown here)

[8] = α1-K562 overexpressing cells, collagen IV, n=6, Table S6, read-out: IC50 α1β1 (linear peptides)
[9] = α2-K562 overexpressing cells, collagen I, n=6, Table S6, read-out: IC50 α2β1 (linear peptides)
[10] = Jurkat cells, VCAM-1, n=6, Table S6, read-out: IC50 α4β1 (linear peptides)
[11] = K562 wild type cells, fibronectin, n=6, Table S6, read-out: IC50 α5β1 (linear peptides)

Compound	IC50 [1]	IC50 ([2]; α1-K562 overexpressed cells, 30 min at 37 °C, read-out: IC50 α1β1-collagen IV)	IC50 ([3]; α2-K562 overexpressed cells, 30 min at 37 °C, read-out: IC50 α2β1-collagen I)	IC50 ([4]; Jurkat treated with TNF-α (10 ng/mL) for 24 h, read-out: IC50 Jurkat lymphocytes-VACAM-1 TNFα)	IC50 ([4]; untreated Jurkat lymphocytes (α4β1), read-out: IC50 Jurkat lymphocytes-VACAM-1 control)	IC50 ([5]; wild-type K562 (α5β1), 30 min at 37 °C, read-out: IC50 α5β1-fibronectin)	IC50 [6]	IC50 [7]	IC50 [2, 8]	IC50 [3, 9]	IC50 [4, 10]	IC50 [5, 11]
CSCC[C@@H]1NC(=O)[C@H]([C@@H](C)O)NC(=O)CN(C(=O)[C@@H](N)CCCNC(=N)N)CCCCNC(=O)NCCCCN(CC(=O)N[C@@H](CC(C)C)C(N)=O)C(=O)[C@H](CC(=O)O)NC(=O)[C@H](CC(C)C)NC1=O [Arg-visabron c (4–4)] (H-R[Nlys]TMLD[Nlys]L-NH2; linker 2-7 via CO; N-terminus assumed)	> 10 mM	> 10 mM	> 10 mM	> 5 mM	> 5 mM	> 10 mM	> 10 mM					
CSCC[C@H](NC(=O)[C@@H](NC(=O)[C@H](CCCNC(=N)N)NC(=O)[C@H](CCCCN)NC(=O)[C@@H](N)CS)[C@@H](C)O)C(=O)N[C@@H](CC(C)C)C(=O)N[C@@H](CC(=O)O)C(=O)NCC(=O)N[C@@H](CC(C)C)C(=O)N[C@@H](CC(N)=O)C(=O)N[C@@H](CC(=O)O)C(=O)N[C@@H](Cc1ccc(O)cc1)C(=O)N[C@@H](CS)C(N)=O [sequence 3, CKRTMLDGLNDYC] (H-CKRTMLDGLNDYC-NH2; N-terminus and C-terminus assumed)								1.25 ± 0.095 mM	> 10 mM	> 10 mM	1.45 ± 0.105 mM	> 10 mM
CSCC[C@H](NC(=O)[C@H](C)NC(=O)[C@H](CCCNC(=N)N)NC(=O)[C@H](CCCCN)NC(=O)[C@@H](N)CS)C(=O)N[C@@H](CC(C)C)C(=O)N[C@@H](CC(=O)O)C(=O)NCC(=O)N[C@@H](CC(C)C)C(=O)N[C@@H](CC(N)=O)C(=O)N[C@@H](CC(=O)O)C(=O)N[C@@H](Cc1ccc(O)cc1)C(=O)N[C@@H](CS)C(N)=O [sequence 4, CKRAMLDGLNDYC] (H-CKRAMLDGLNDYC-NH2; N-terminus and C-terminus assumed)								2.84 ± 0.115 mM	> 10 mM	> 10 mM	3.91 ± 0.08 mM	> 10 mM
CSCC[C@H](NC(=O)[C@@H](NC(=O)[C@H](CCCNC(=N)N)NC(=O)[C@@H](N)CCCCN)[C@@H](C)O)C(=O)N[C@@H](CC(C)C)C(=O)N[C@@H](CC(=O)O)C(=O)NCC(=O)N[C@@H](CC(C)C)C(N)=O [sequence 5, KRTMLDGL] (H-KRTMLDGL-NH2; N-terminus and C-terminus assumed)								1.26 ± 0.08 mM	> 10 mM	> 10 mM	1.31 ± 0.095 mM	> 10 mM
